Each compound was assayed on LXRα and/or LXRβ (assay: LXR/LXRE co-transfection assay (luciferase reporter, CV-1 cells)). Details: IC50 or EC50 for LXR (LXRα and/or LXRβ, not distinguished), tested as described in Example 109, CV-1 cells.
Type: cell-based, human
Summary of the method: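 Luciferase readout after 20 h compound exposure at 37 °C in CV-1 cells transiently expressing human LXRα or LXRβ with RXRα and an LXRE-driven reporter. Dose-response over 8 points at ½-log spacing, 4 wells each, fitted for EC50/IC50; values average ≥3 independent experiments, efficacy as % of high control.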

EC50, < 1000 nM:
CC(C)(O)c1nn(-c2ccc(-c3cccc(S(C)(=O)=O)c3)cc2Cl)c(-c2ccccc2Cl)c1Cl [Example 1423, 2-(4-chloro-1-(3-chloro-3′-(methylsulfonyl)biphenyl-4-yl)-5-(2-chlorophenyl)-1H-pyrazol-3-yl)propan-2-ol]
Cc1cc(-c2cccc(S(C)(=O)=O)c2)ccc1-n1nc(C(C)(C)O)c(Cl)c1-c1c(Cl)cccc1Cl [Example 1424, 2-(4-chloro-5-(2,6-dichlorophenyl)-1-(3-methyl-3′-(methylsulfonyl)biphenyl-4-yl)-1H-pyrazol-3-yl)propan-2-ol]
CC(C)(O)c1nn(-c2ccc(-c3cccc(S(C)(=O)=O)c3)cc2Cl)c(-c2cccc(F)c2F)c1Cl [Example 1427, 2-(4-chloro-1-(3-chloro-3′-(methylsulfonyl)biphenyl-4-yl)-5-(2,3-difluorophenyl)-1H-pyrazol-3-yl)propan-2-ol]

— patent US8703805B2 (Exelixis Patent Company LLC, priority 2005, dated 2014)
